Experimental data reported in patent US20060135587A1, “Method and compounds for promoting healing and reducing inflammation” (priority 2002, published 2006).

How the values were obtained:
[1] = system: acute Con A-induced inflammation; assay: Acute Con A-induced inflammation (paw oedema) in mice; assay type: in vivo
Method: Saline solution was similarly administered to the control animals. There were 10 mice in each group. After one hour, con A at a dose of 100 mkg/20 g of body weight was administered by sub-plantar injection into the plantar aponeurosis of the left paws of mice of both the experimental and control groups. The same amount of saline splution was injected into the contralateral paws. After one hour, the mice were killed and the experimental and control paws were weighed to assess the reaction index of the inflammation in the ankle-joint (Liubimov et al, 1999).
The anti-inflammatory effect of Compound 2 and Compound 7 was compared in male mice weighing 18-22 g, using the model described in Example 9. The ED50, i.e. the dose reducing paw ooedema by 50% one hour after injection of Concanavalin A, was calculated.

[2] = system: carrageenin-induced inflammation; assay: Carrageenin-induced inflammation in intact and adrenalectomized rats; assay type: in vivo
Method: An acute inflammatory oedema was induced in intact and adrenalectomized male rats weighing 180-200 g by sub-plantar injection of 0.1 ml of 1% carrageenin solution into the left paw (Winter et al., 1962). The same volume of saline solution was injected into the contralateral paw. […] There were 10 rats in each group.
The degree of carrageenin-induced inflammation of the ankle joints was assessed at 3 hours after the induction of the inflammation, on the basis of the change in weight of the experimental and control paws (reaction index).

[3] = Rat peripheral blood indicators during full-thickness skin wound treatment; assay type: in vivo, rats
Method: Peripheral blood indicators (leucocytes, leucocyte formula, erythrocyte sedimentation rate) of the rats from the test and control groups were measured before the animals were wounded, and then checked on the fifth, tenth and fifteenth days of the experiment. No reproducible changes compared to the blood characteristics of the intact animals prior to wounding were identified from the haematological indicators of rats treated with Compound 2.

[4] = system: wounds; assay: Treatment of wounds in human patients; assay type: in vivo
Method: The effect of Compound 2 on the healing of different types of wounds was tested in human patients. A powder, solution or ointment of the substance containing the active agent in a proportion of 5% to 95% was applied to the wound. In all cases the wounds healed rapidly without infection or scarring.

[5] = system: lesions of the gastric mucosa; assay: Gastric lesions induced by immobilization and hypothermia; assay type: in vivo, rats; parameters: % reduction of degree of ulceration / % reduction of ulcerated area: concentration or dose not given beside the values; conditions: Protective effect, 30 minutes before the test
Method: The models used gastric ulcers induced by
b) Immobilization and hypothermia (induced by water cooling);
The compounds were administered intraperitoneally at a dose of 20 mg/kg; in the cryogenic ulcer model compound 2 was administered either intraperitoneally (10 mg/kg) or orally (20 mg/kg twice daily, ie. a total of 40 mg/kg/day) and was compared to orally-administered gastrocepin (1 mg/kg twice daily, ie. a total of 2 mg/kg/day).

[6] = system: bone plate defect; assay: Repair of bone plate defect of the rat lower jaw; assay type: in vivo, rats; conditions: 50 mg/kg over the course of three months
Method: A round or oval defect of the bone plate with a diameter of 2.5 mm was produced in the bone tissue of the rat lower jaw, using a dental drill under ether anaesthesia. In the post-operative period, the animals were kept in separate cages, with normal food and water ad libitum. The experiments were performed on 130 male rats weighing 180-200 g, with 10 rats in each group.
The animal test groups were treated with Compound 2 (50 or 100 mg/kg) or methyl uracil (50 mg/kg) 24 hours after the damage and on a daily basis for three months. […] The following groups were used:
The repair pattern of the injured bone was assessed morphologically on tissue sections after 30, 60 and 90 days. The sections were examined by light microscopy at magnifications of ×15, ×100, ×200, and ×400.

[7] = Table 4, 0.005M dose (Compound 2 19 mg/kg, Compound 7 16.4 mg/kg) + Con A
[8] = Table 4, 0.01M dose (Compound 2 38 mg/kg, Compound 7 32 mg/kg) + Con A
[9] = Table 4, 0.015M dose (Compound 2 57 mg/kg, Compound 7 49 mg/kg) + Con A
[10] = Table 4, 0.02M dose (Compound 2 76 mg/kg, Compound 7 65.6 mg/kg) + Con A
[11] = Adrenalectomized animals, 50 mg/kg 4 days + carrageenin
[12] = Adrenalectomized animals, 100 mg/kg 4 days + carrageenin
[13] = Intact animals, 100 mg/kg 4 days + carrageenin

CC[n+]1cn(C)c(C(=O)NC)c1C(=O)NC.O=S(=O)([O-])c1ccccc1 [Compound 2, 1-methyl-3-ethyl-4,5-bis(N-methylcarbamoyl)-imidazolium benzenesulfonate]
Reaction index (%) ([1]; Table 3, 10 mg/kg intra-peritoneally one hour before Con A, male CBA mice): 10.4 ± 2.0 % | Reaction index (%) ([1]; Table 3, 50 mg/kg intra-peritoneally one hour before Con A, male CBA mice): 8.4 ± 0.9 % | Paw oedema reduction (%) [1, 7]: 66% | Reaction index (%) [1, 7]: 5.4 ± 2.0% | Paw oedema reduction (%) [1, 8]: 52% | Reaction index (%) [1, 8]: 7.7 ± 1.8% | Paw oedema reduction (%) ([1]; Table 4, 10 mg/kg + Con A): 33% | Reaction index (%) ([1]; Table 4, 10 mg/kg + Con A): 11.1 ± 3.5% | Paw oedema reduction (%) [1, 9]: 66% | Reaction index (%) [1, 9]: 5.3 ± 2.0% | Paw oedema reduction (%) [1, 10]: 77% | Reaction index (%) [1, 10]: 3.3 ± 2.0% | ED50, dose reducing paw oedema by 50% one hour after injection of Concanavalin A ([1]; male mice): 33 mg/kg | Inhibition of oedema(%) [2, 11]: 27.88% | Reaction index (%) [2, 11]: 31.04 ± 2.49 % | Inhibition of oedema(%) [2, 12]: 44.43% | Reaction index (%) [2, 12]: 25.63 ± 2.86 % | Inhibition of oedema(%) ([2]; Intact animals, 50 mg/kg orally 4 days + carrageenin): 30.41% | Reaction index (%) ([2]; Intact animals, 50 mg/kg orally 4 days + carrageenin, 3 hours): 29.96 ± 2.30 % | Inhibition of oedema(%) [2, 13]: 47.43% | Reaction index (%) [2, 13]: 22.63 ± 2.86 % | ESR mm/h ([3]; day 5): 2.2 ± 0.6 mm/h | Leucocyte count (%) Band neutrophils ([3]; day 5): 1.4 ± 0.4% | Leucocyte count (%) Segmented neutrophils ([3]; day 5): 35.2 ± 4.4% | Leucocyte count (%) basophils ([3]; day 5): 0% | Leucocyte count (%) eosinophils ([3]; day 5): 2.6 ± 0.6% | Leucocyte count (%) lymphocytes ([3]; day 5): 52.6 ± 4.5% | Leucocyte count (%) monocytes ([3]; day 5): 8.2 ± 0.8% | Leucocytes 10^9/l ([3]; day 5): 6.6 ± 0.9 10^9/l | ESR mm/h ([3]; day 10): 1.0 ± 0 mm/h | Leucocyte count (%) Band neutrophils ([3]; day 10): 1.2 ± 0.2% | Leucocyte count (%) Segmented neutrophils ([3]; day 10): 29.6 ± 2.2% | Leucocyte count (%) basophils ([3]; day 10): 0.6 ± 0.2% | Leucocyte count (%) eosinophils ([3]; day 10): 2.4 ± 0.5% | Leucocyte count (%) lymphocytes ([3]; day 10): 63.8 ± 1.9% | Leucocyte count (%) monocytes ([3]; day 10): 2.4 ± 0.5% | Leucocytes 10^9/l ([3]; day 10): 7.9 ± 0.6 10^9/l | European Search Report mm/h ([3]; day 15): 1.4 ± 0.2 mm/h | Leucocyte count (%) Band neutrophils ([3]; day 15): 1.2 ± 0.2% | Leucocyte count (%) Segmented neutrophils ([3]; day 15): 21.0 ± 3.1% | Leucocyte count (%) basophils ([3]; day 15): 0.4 ± 0.2% | Leucocyte count (%) eosinophils ([3]; day 15): 2.8 ± 0.2% | Leucocyte count (%) lymphocytes ([3]; day 15): 70.6 ± 3.4% | Leucocyte count (%) monocytes ([3]; day 15): 4.0 ± 0.7% | Leucocytes 10^9/1 ([3]; day 15): 11.1 ± 1.6 10^9/1 | wound outcome ([4]; Patient A, incisional wound 5 cm, 10% ointment in lanolin daily for 5 days, at 17 days): there was no scar, and the skin had fully recovered | wound outcome ([4]; Patient B, bed sores on the thigh, 0.5 g finely dispersed powder daily for 5 days, at 16 days): there was no scar, and the skin had fully recovered | wound outcome ([4]; Patient C, second degree thermal burn, 10% sterile aqueous solution, at 16 days): complete recovery of the skin, without scars | wound outcome ([4]; Patient D, abrasion of the left leg, 0.5 g powder mixed with equal amount of talc, at 12 days): the skin had healed completely | wound outcome ([4]; Patient E, erosion of the uterine cervix, 10% ointment on a tampon daily for two weeks, colposcopy at 18 days): the epithelium of the mucous membrane of the uterine cervix had fully recovered | % reduction of degree of ulceration [5]: 64% | % reduction of ulcerated area [5]: 62% | Area of lesion [5]: 4.1 ± 0.8 | Average number of lesions per animal ([5]; 20 mg/kg intraperitoneally): 4.1 ± 0.9 | closing of bone defect [6]: the defect was almost fully closed by the newly formed primary callus bone tissue
